Test results from the NIST ThermoML archive (doi:10.1021/je9010097).

Test: excess molar enthalpy (molar enthalpy of mixing); xn = mol fraction of the nth substance listed
Conditions: 308.15 K, 101 kPa, Liquid, Flow calorimetry

C1COCCN1 [tetrahydro-1,4-oxazine] + C1CCCCC1
Conditions	excess molar enthalpy [kcal/mol]
x2 = 0.1	0.146
x2 = 0.201	0.261
x2 = 0.3	0.354
x2 = 0.401	0.418
x2 = 0.5	0.446
x2 = 0.6	0.436
x2 = 0.7	0.392
x2 = 0.801	0.312
x2 = 0.9	0.195

C1COCCN1 [tetrahydro-1,4-oxazine] + C1CCOCC1
Conditions	excess molar enthalpy [kcal/mol]
x2 = 0.101	0.039
x2 = 0.199	0.0703
x2 = 0.3	0.0946
x2 = 0.401	0.109
x2 = 0.501	0.115
x2 = 0.6	0.11
x2 = 0.702	0.0963
x2 = 0.8	0.0731
x2 = 0.899	0.0411

C1COCCN1 [tetrahydro-1,4-oxazine] + C1COCCO1
Conditions	excess molar enthalpy [kcal/mol]
x2 = 0.108	0.0296
x2 = 0.201	0.0507
x2 = 0.303	0.0681
x2 = 0.403	0.0772
x2 = 0.506	0.0791
x2 = 0.6	0.0753
x2 = 0.703	0.0645
x2 = 0.803	0.0495
x2 = 0.905	0.0272
